Among the data in patent US10689367B2, “Triazole pyridyl compounds as agonists of the APJ receptor” (AMGEN INC., priority 2016, dated 2020) are EC50 values, retold here.

SMILES strings stand for the structures.

Sequence of human APJ receptor (P35414 whole entry): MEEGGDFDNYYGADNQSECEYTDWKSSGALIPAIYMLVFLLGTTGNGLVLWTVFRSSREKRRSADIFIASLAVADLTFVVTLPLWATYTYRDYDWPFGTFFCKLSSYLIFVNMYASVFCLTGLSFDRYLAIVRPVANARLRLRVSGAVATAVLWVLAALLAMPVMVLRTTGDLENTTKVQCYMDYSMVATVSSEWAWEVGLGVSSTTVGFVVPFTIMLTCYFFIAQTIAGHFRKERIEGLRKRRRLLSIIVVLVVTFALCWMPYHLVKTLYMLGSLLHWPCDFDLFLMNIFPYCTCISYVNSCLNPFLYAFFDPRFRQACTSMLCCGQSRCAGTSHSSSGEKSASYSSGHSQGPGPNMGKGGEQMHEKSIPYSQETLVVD

The target of the assay is human APJ receptor (Homo sapiens (Human), UniProt P35414). Briefly: [35S]GTPγS binding assay on membranes from CHO cells stably expressing human APJ receptor. It is filed as biochemical. As to conditions: membranes of CHO cells stably expressing human APJ receptor, read-out: Activity hAPJ SPA EC50 IP. The method in brief:
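Agonist EC50 values come from non-linear regression of mean data from several independent runs. Membranes of CHO cells stably expressing human APJ were incubated 90 min at room temperature with [35S]GTPγS in buffer with optimized GDP, MgCl2 and NaCl, then read on a microplate imager.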
As to `COc1cccc(-c2nnc(NS(=O)(=O)[C@@H](C)[C@H](OC)c3ncc(Cl)cn3)n2[C@@H]2CC[C@H]2OC)n1` (single isomer, unassigned) [Example 162.0, (1R,2S)-1-(5-Chloropyrimidin-2-yl)-1-methoxy-N-(4-((1R,2R)-2-methoxycyclobutyl)-5-(6-methoxypyridin-2-yl)-4H-1,2,4-triazol-3-yl)propane-2-sulfonamide or (1R,2S)-1-(5-chloropyrimidin-2-yl)-1-methoxy-N-(4-((1S,2S)-2-methoxycyclobutyl)-5-(6-methoxypyridin-2-yl)-4H-1,2,4-triazol-3-yl)propane-2-sulfonamide], the EC50 (usually the concentration needed to bring the measured effect to its halfway point) was 2.8 nM. Take `COc1cccc(-c2nnc(NS(=O)(=O)[C@@H](C)[C@H](OC)c3ncc(Cl)cn3)n2[C@@H](C)c2ccno2)n1` (single isomer, unassigned) [Example 212.0, (1R,2S)-1-(5-chloro-2-pyrimidinyl)-1-methoxy-N-(5-(6-methoxy-2-pyridinyl)-4-((1S)-1-(1,2-oxazol-5-yl)ethyl)-4H-1,2,4-triazol-3-yl)-2-propanesulfonamide or (1R,2S)-1-(5-chloro-2-pyrimidinyl)-1-methoxy-N-(5-(6-methoxy-2-pyridinyl)-4-((1R)-1-(1,2-oxazol-5-yl)ethyl)-4H-1,2,4-triazol-3-yl)-2-propanesulfonamide]: the EC50 worked out at 0.85 nM. For `COc1cccc(-c2nnc(NS(=O)(=O)[C@@H](C)[C@H](OC)c3ncc(Cl)cn3)n2[C@@H](C)c2ccno2)n1` (single isomer, unassigned) [Example 213.0, (1R,2S)-1-(5-chloro-2-pyrimidinyl)-1-methoxy-N-(5-(6-methoxy-2-pyridinyl)-4-((1R)-1-(1,2-oxazol-5-yl)ethyl)-4H-1,2,4-triazol-3-yl)-2-propanesulfonamide or (1R,2S)-1-(5-chloro-2-pyrimidinyl)-1-methoxy-N-(5-(6-methoxy-2-pyridinyl)-4-((1S)-1-(1,2-oxazol-5-yl)ethyl)-4H-1,2,4-triazol-3-yl)-2-propanesulfonamide], the EC50 came out at 0.66 nM. Take `COc1cccc(-c2nnc(NS(=O)(=O)[C@@H](C)[C@H](C)c3ncc(Cl)cn3)n2[C@@H](C)c2ccno2)n1` (single isomer, unassigned) [Example 214.0, (2S,3R)-3-(5-chloro-2-pyrimidinyl)-N-(5-(6-methoxy-2-pyridinyl)-4-((1S)-1-(1,2-oxazol-5-yl)ethyl)-4H-1,2,4-triazol-3-yl)-2-butanesulfonamide or (2S,3R)-3-(5-chloro-2-pyrimidinyl)-N-(5-(6-methoxy-2-pyridinyl)-4-((1R)-1-(1,2-oxazol-5-yl)ethyl)-4H-1,2,4-triazol-3-yl)-2-butanesulfonamide]: the EC50 is 2.9 nM. As for `COc1cccc(-c2nnc(NS(=O)(=O)[C@@H](C)[C@H](C)c3ncc(Cl)cn3)n2[C@@H](C)c2ccno2)n1` (single isomer, unassigned) [Example 215.0, (2S,3R)-3-(5-chloro-2-pyrimidinyl)-N-(5-(6-methoxy-2-pyridinyl)-4-((1R)-1-(1,2-oxazol-5-yl)ethyl)-4H-1,2,4-triazol-3-yl)-2-butanesulfonamide or (2S,3R)-3-(5-chloro-2-pyrimidinyl)-N-(5-(6-methoxy-2-pyridinyl)-4-((1S)-1-(1,2-oxazol-5-yl)ethyl)-4H-1,2,4-triazol-3-yl)-2-butanesulfonamide], the EC50 is 2 nM. Turning to `COc1cccc(-c2nnc(NS(=O)(=O)[C@@H](C)[C@@H](OC(C)C)c3ncc(C)cn3)n2[C@@H](C)c2ccno2)n1` (single isomer, unassigned) [Example 216.0, (1S,2S)-N-(5-(6-methoxy-2-pyridinyl)-4-((1S)-1-(1,2-oxazol-5-yl)ethyl)-4H-1,2,4-triazol-3-yl)-1-(5-methyl-2-pyrimidinyl)-1-(2-propanyloxy)-2-propanesulfonamide or (1S,2S)-N-(5-(6-methoxy-2-pyridinyl)-4-((1R)-1-(1,2-oxazol-5-yl)ethyl)-4H-1,2,4-triazol-3-yl)-1-(5-methyl-2-pyrimidinyl)-1-(2-propanyloxy)-2-propanesulfonamide], the half-maximal effective concentration (EC50) was 2.2 nM. With `COc1cccc(-c2nnc(NS(=O)(=O)[C@@H](C)[C@@H](OC(C)C)c3ncc(C)cn3)n2[C@@H](C)c2ccno2)n1` (single isomer, unassigned) [Example 217.0, (1S,2S)-N-(5-(6-methoxy-2-pyridinyl)-4-((1R)-1-(1,2-oxazol-5-yl)ethyl)-4H-1,2,4-triazol-3-yl)-1-(5-methyl-2-pyrimidinyl)-1-(2-propanyloxy)-2-propanesulfonamide or (1S,2S)-N-(5-(6-methoxy-2-pyridinyl)-4-((1S)-1-(1,2-oxazol-5-yl)ethyl)-4H-1,2,4-triazol-3-yl)-1-(5-methyl-2-pyrimidinyl)-1-(2-propanyloxy)-2-propanesulfonamide], the EC50 was determined as 5.3 nM.

With `CC[C@@H](c1c(C)noc1C)n1c(NS(=O)(=O)[C@@H](C)[C@H](OC)c2ncc(Cl)cn2)nnc1-c1cccc(OC)n1` (single isomer, unassigned) [Example 218.0, (1R,2S)-1-(5-chloro-2-pyrimidinyl)-N-(4-((1S)-1-(3,5-dimethyl-1,2-oxazol-4-yl)propyl)-5-(6-methoxy-2-pyridinyl)-4H-1,2,4-triazol-3-yl)-1-methoxy-2-propanesulfonamide or (1R,2S)-1-(5-chloro-2-pyrimidinyl)-N-(4-((1S)-1-(3,5-dimethyl-1,2-oxazol-4-yl)propyl)-5-(6-methoxy-2-pyridinyl)-4H-1,2,4-triazol-3-yl)-1-methoxy-2-propanesulfonamide], the concentration for a half-maximal effect (EC50) was determined as 3.7 nM. In the case of `CC[C@@H](c1c(C)noc1C)n1c(NS(=O)(=O)[C@@H](C)[C@H](OC)c2ncc(Cl)cn2)nnc1-c1cccc(OC)n1` (single isomer, unassigned) [Example 219.0, (1R,2S)-1-(5-chloro-2-pyrimidinyl)-N-(4-((1R)-1-(3,5-dimethyl-1,2-oxazol-4-yl)propyl)-5-(6-methoxy-2-pyridinyl)-4H-1,2,4-triazol-3-yl)-1-methoxy-2-propanesulfonamide or (1R,2S)-1-(5-chloro-2-pyrimidinyl)-N-(4-((1S)-1-(3,5-dimethyl-1,2-oxazol-4-yl)propyl)-5-(6-methoxy-2-pyridinyl)-4H-1,2,4-triazol-3-yl)-1-methoxy-2-propanesulfonamide], the EC50 stood at 1.8 nM.

Take `CC[C@@H](c1c(C)noc1C)n1c(NS(=O)(=O)[C@@H](C)[C@@H](OC(C)C)c2ncc(C)cn2)nnc1-c1cccc(OC)n1` (single isomer, unassigned) [Example 220.0, (1S,2S)-N-(4-((1S)-1-(3,5-dimethyl-1,2-oxazol-4-yl)propyl)-5-(6-methoxy-2-pyridinyl)-4H-1,2,4-triazol-3-yl)-1-(5-methyl-2-pyrimidinyl)-1-(2-propanyloxy)-2-propanesulfonamide or (1S,2S)-N-(4-((1R)-1-(3,5-dimethyl-1,2-oxazol-4-yl)propyl)-5-(6-methoxy-2-pyridinyl)-4H-1,2,4-triazol-3-yl)-1-(5-methyl-2-pyrimidinyl)-1-(2-propanyloxy)-2-propanesulfonamide]: the EC50 was 55 nM. Turning to `CC[C@@H](c1c(C)noc1C)n1c(NS(=O)(=O)[C@@H](C)[C@@H](OC(C)C)c2ncc(C)cn2)nnc1-c1cccc(OC)n1` (single isomer, unassigned) [Example 221.0, (1S,2S)-N-(4-((1R)-1-(3,5-dimethyl-1,2-oxazol-4-yl)propyl)-5-(6-methoxy-2-pyridinyl)-4H-1,2,4-triazol-3-yl)-1-(5-methyl-2-pyrimidinyl)-1-(2-propanyloxy)-2-propanesulfonamide or (1S,2S)-N-(4-((1S)-1-(3,5-dimethyl-1,2-oxazol-4-yl)propyl)-5-(6-methoxy-2-pyridinyl)-4H-1,2,4-triazol-3-yl)-1-(5-methyl-2-pyrimidinyl)-1-(2-propanyloxy)-2-propanesulfonamide], the EC50 worked out at 14 nM. With `CC[C@@H](c1c(C)noc1C)n1c(NS(=O)(=O)[C@@H](C)[C@H](OC)c2cnc(C)cn2)nnc1-c1cccc(OC)n1` (single isomer, unassigned) [Example 222.0, (1R,2S)-N-(4-((1S)-1-(3,5-dimethyl-1,2-oxazol-4-yl)propyl)-5-(6-methoxy-2-pyridinyl)-4H-1,2,4-triazol-3-yl)-1-methoxy-1-(5-methyl-2-pyrazinyl)-2-propanesulfonamide or (1R,2S)-N-(4-((1R)-1-(3,5-dimethyl-1,2-oxazol-4-yl)propyl)-5-(6-methoxy-2-pyridinyl)-4H-1,2,4-triazol-3-yl)-1-methoxy-1-(5-methyl-2-pyrazinyl)-2-propanesulfonamide], the EC50 amounted to 58 nM. The value for `CC[C@@H](c1c(C)noc1C)n1c(NS(=O)(=O)[C@@H](C)[C@H](OC)c2cnc(C)cn2)nnc1-c1cccc(OC)n1` (single isomer, unassigned) [Example 223.0, (1R,2S)-N-(4-((1R)-1-(3,5-dimethyl-1,2-oxazol-4-yl)propyl)-5-(6-methoxy-2-pyridinyl)-4H-1,2,4-triazol-3-yl)-1-methoxy-1-(5-methyl-2-pyrazinyl)-2-propanesulfonamide or (1R,2S)-N-(4-((1S)-1-(3,5-dimethyl-1,2-oxazol-4-yl)propyl)-5-(6-methoxy-2-pyridinyl)-4H-1,2,4-triazol-3-yl)-1-methoxy-1-(5-methyl-2-pyrazinyl)-2-propanesulfonamide] was 32 nM; that for `CC[C@@H](c1c(C)noc1C)n1c(NS(=O)(=O)[C@@H](C)[C@H](C)c2ncc(Cl)cn2)nnc1-c1cccc(OC)n1` (single isomer, unassigned) [Example 224.0, (2S,3R)-3-(5-chloro-2-pyrimidinyl)-N-(4-((1S)-1-(3,5-dimethyl-1,2-oxazol-4-yl)propyl)-5-(6-methoxy-2-pyridinyl)-4H-1,2,4-triazol-3-yl)-2-butanesulfonamide or (2S,3R)-3-(5-chloro-2-pyrimidinyl)-N-(4-((1R)-1-(3,5-dimethyl-1,2-oxazol-4-yl)propyl)-5-(6-methoxy-2-pyridinyl)-4H-1,2,4-triazol-3-yl)-2-butanesulfonamide] was 13 nM.
